Data: paper PMC2789240, “Comparative structural, kinetic and inhibitor studies of Trypanosoma brucei trypanothione reductase with T. cruzi^” (Molecular and Biochemical Parasitology, 2010)
Where two headings read alike, the source gives them in different places.

What was measured:
[1] = tested on: TbTryR (recombinant T. b. brucei trypanothione reductase)
[2] = biological target: T1, TcTryR (recombinant T. cruzi trypanothione reductase) (Trypanosoma cruzi, UniProt P28593); test: 412 nm DTNB-coupled trypanothione reductase assay (IC50, Km); format: biochemical; details: 412 nm assay, T(S)2 at S = Km (10.4 μM), weighted mean of three occasions
T1 construct: made in house
T1 sequence (P28593 whole entry): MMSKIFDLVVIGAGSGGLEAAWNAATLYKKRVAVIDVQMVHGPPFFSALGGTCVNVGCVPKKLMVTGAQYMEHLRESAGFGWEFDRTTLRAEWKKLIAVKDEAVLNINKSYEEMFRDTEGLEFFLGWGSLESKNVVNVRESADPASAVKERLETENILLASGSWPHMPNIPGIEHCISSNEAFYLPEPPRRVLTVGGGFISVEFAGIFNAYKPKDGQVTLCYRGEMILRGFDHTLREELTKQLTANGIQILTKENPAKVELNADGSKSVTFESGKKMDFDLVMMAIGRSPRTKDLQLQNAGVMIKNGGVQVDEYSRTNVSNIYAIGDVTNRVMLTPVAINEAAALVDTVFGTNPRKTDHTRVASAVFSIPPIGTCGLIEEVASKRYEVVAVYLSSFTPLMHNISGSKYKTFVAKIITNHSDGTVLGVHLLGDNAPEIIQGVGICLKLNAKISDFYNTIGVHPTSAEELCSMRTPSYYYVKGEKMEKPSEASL
Protocol: Assay plates were prepared using a Precision2000 liquid handler (Bio-Tek) with a final DMSO concentration of 1% in all wells. Plates contained a 10-point serial dilution (2-fold or 3-fold dilutions) across columns 2–11 with a top concentration of 100 μM or 200 μM. […] Column 1 contained full signal controls (no inhibitor) and column 12 contained background controls (no enzyme). […] Z′ figures were calculated from the full signal and background controls.

[3] = biological target: T2, TbTryR (recombinant T. b. brucei trypanothione reductase) (Trypanosoma brucei brucei, UniProt Q389T8); test: biochemical
T2 sequence (Q389T8 entry or part of it): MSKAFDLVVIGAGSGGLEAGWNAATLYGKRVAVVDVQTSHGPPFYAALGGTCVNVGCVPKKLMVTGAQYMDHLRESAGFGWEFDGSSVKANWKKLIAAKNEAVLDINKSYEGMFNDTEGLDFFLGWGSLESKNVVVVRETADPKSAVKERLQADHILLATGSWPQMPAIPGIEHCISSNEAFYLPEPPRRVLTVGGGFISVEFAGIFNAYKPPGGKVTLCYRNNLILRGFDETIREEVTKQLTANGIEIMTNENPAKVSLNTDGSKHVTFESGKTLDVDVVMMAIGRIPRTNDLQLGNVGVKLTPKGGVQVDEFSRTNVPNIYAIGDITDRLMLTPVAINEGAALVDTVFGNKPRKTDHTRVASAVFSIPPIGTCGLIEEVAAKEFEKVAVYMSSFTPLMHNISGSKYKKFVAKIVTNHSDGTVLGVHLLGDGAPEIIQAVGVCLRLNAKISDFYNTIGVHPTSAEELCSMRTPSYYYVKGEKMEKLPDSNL

[4] = tested on: Bloodstream form T. b. brucei cells (strain 427, 'single marker'); test: Growth inhibition of bloodstream form T. b. brucei (resazurin); format: cell-based; details: Trypanosoma brucei, 72 h, 3 days incubation, weighted mean of three experiments
Protocol: Bloodstream form T. b. brucei cells (strain 427, ‘single marker’) were grown at 37 °C and 5% CO2 in a modified HMI9 [21] (HMI9-T where 0.2 mM 2-mercaptoethanol was replaced with 0.056 mM thioglycerol). Stock cultures were maintained in T75 vented cap culture flasks (Greiner, Kremsmuenster, Austria) and sub-cultured every 48–72 h by dilution into fresh medium. For microtitre plate assays, cells were counted using a Casy cell counter TT (Schärfe systems) and diluted appropriately. Compounds were tested in 96-well test plates (Greiner). The final conditions were 50–0.07 μM test compound (9-point 3-fold serial dilutions), 0.5% DMSO, 10^3 ml^−1 cells in a total volume of 0.2 ml. Plates were incubated for 3 days, resazurin was added to a final concentration of 45 μM and plates incubated for a further 4 h. Fluorescence was measured at 528 nm excitation and 590 nm emission. EC50 values were determined in three separate experiments and the data reported as weighted means.

African trypanosomiasis [5] = tested on: African trypanosomiasis; design: method as in Halliburton and Fairlamb, unpublished; details: 50 mg kg^-1, i.p., acute mouse model; ref Halliburton and Fairlamb, unpublished; cited from earlier work
[6] = tested on: Bloodstream form T. b. brucei cells (strain 427, 'single marker'); details: cited from earlier work
[7] = biological target: T2, TbTryR (recombinant T. b. brucei trypanothione reductase); details: 150 μM NADH as electron donor, 412 nm assay
TbTryR = TbTryR (Trypanosoma brucei brucei, UniProt Q389T8); test: Modified 412 nm DTNB-coupled assay with NADPH regeneration by glucose-6-phosphate dehydrogenase; format: biochemical; details: NADPH-regenerating system, 6 μM T(S)2
Chain of TbTryR (Q389T8 entry or part of it): as above
Protocol: In order to determine Km with respect to NADPH using the 412 nm DTNB assay, NADPH levels were maintained constant using glucose-6-phosphate and glucose-6-phosphate dehydrogenase from Saccharomyces cerevisiae. […] The final assay mixture contained 40 mM HEPES pH 7.4, 1 mM EDTA, ∼10 mU ml^−1 TryR, 6 μM T(S)2, 50 μM DTNB and 0.2–200 μM NADPH (7-point 3-fold serial dilution). Assays were initiated by addition of the NADPH. Km values with respect to NADPH were determined for TbTryR in three independent experiments and a weighted mean calculated.

[8] = tested on: L. donovani trypanothione reductase; design: method as in PMID 7607216; details: read-out: Km T(S)2 (by NADPH oxidation); cited from earlier work
African trypanosomiasis [9] = tested on: African trypanosomiasis; design: method as in PMID 3503414; details: 50 mg kg^-1, i.p.; cited from earlier work
[10] = ratio of IC50 values at respective S = Km

CN(C)CCCC1(c2ccc(F)cc2)OCc2cc(C#N)ccc21 (centres unmarked) [Citalopram]
Ratio Tc/Tb (IC50 TcTryR / IC50 TbTryR) [1, 10]: 1.9 | IC50 [2]: 154 ± 5.42 µM | IC50 [3]: 82.3 ± 6.35 µM | EC50 [4]: 6.59 ± 0.54 µM

CN(C)CCCN1c2ccccc2CCc2ccc(Cl)cc21 [Clomipramine]
extension of survival time (African trypanosomiasis [5]): failed to extend survival time by even one day

CN(C)CCC(=O)c1ccc(S(C)(=O)=O)cc1 [DM5a]
Ratio Tc/Tb (IC50 TcTryR / IC50 TbTryR) [1, 10]: 2.5 | IC50 [2]: 16.9 ± 1.08 µM | IC50 [3]: 6.8 ± 0.42 µM | EC50 ([6]; ref Martyn et al. [19]): 0.55 ± 0.04 µM

CN(C)CCC(=O)c1cccc([N+](=O)[O-])c1 [DM6a]
Ratio Tc/Tb (IC50 TcTryR / IC50 TbTryR) [1, 10]: 1.2 | IC50 [2]: 3.8 ± 0.2 µM | IC50 [3]: 3.2 ± 0.16 µM | EC50 ([6]; ref Martyn et al. [19]): 0.68 ± 0.1 µM

CC(C)(C)c1cc(CN(CCO)CCO)cc(C(C)(C)C)c1O [DM7a]
Ratio Tc/Tb (IC50 TcTryR / IC50 TbTryR) [1, 10]: 1.4 | IC50 [2]: 27.8 ± 2.08 µM | IC50 [3]: 19.2 ± 1.75 µM | EC50 ([6]; ref Martyn et al. [19]): 3.01 ± 0.3 µM

CN(C)CCC(=O)c1ccc(Cl)c(Cl)c1 [DM8a]
Ratio Tc/Tb (IC50 TcTryR / IC50 TbTryR) [1]: 2.5 | IC50 [2]: 7.99 ± 0.51 µM | IC50 [3]: 3.17 ± 0.17 µM | EC50 ([6]; ref Martyn et al. [19]): 1 ± 0.21 µM

O=c1c2ccccc2[se]n1-c1ccccc1 [Ebselen]
Ratio Tc/Tb (IC50 TcTryR / IC50 TbTryR) [1, 10]: 3.3 | IC50 [2]: 0.6 ± 0.01 µM | IC50 [3]: 0.18 ± 0.01 µM | EC50 ([6]; ref Richardson et al. [33]): 2.97 µM

NC(=O)C1=CN([C@@H]2O[C@H](COP(=O)(O)OP(=O)(O)OC[C@H]3O[C@@H](n4cnc5c(N)ncnc54)[C@H](O)[C@@H]3O)[C@@H](O)[C@H]2O)C=CC1 [NADH]
Activity relative to that obtained with 150 μM NADPH [7]: 5.7%

NC(=O)C1=CN([C@@H]2O[C@H](COP(=O)(O)OP(=O)(O)OC[C@H]3O[C@@H](n4cnc5c(N)ncnc54)[C@H](OP(=O)(O)O)[C@@H]3O)[C@@H](O)[C@H]2O)C=CC1 [NADPH]
Km (TbTryR): 0.77 ± 0.01 µM

CCN(CC)CCCC(C)Nc1c2ccc(Cl)cc2nc2ccc(OC)cc12 (centres unmarked) [Quinacrine]
Ratio Tc/Tb (IC50 TcTryR / IC50 TbTryR) [1]: 1.7 | IC50 [2]: 37.8 ± 1.91 µM | IC50 [3]: 22.1 ± 2.05 µM

N[C@@H](CCC(=O)N[C@H]1CSSC[C@H](NC(=O)CC[C@H](N)C(=O)O)C(=O)NCC(=O)NCCCNCCCCNC(=O)CNC1=O)C(=O)O [T(S)2, trypanothione disulphide]
Km [8]: 36 µM

CSc1ccc2c(c1)N(CCC1CCCCN1C)c1ccccc1S2 (centres unmarked) [Thioridazine]
activity in the chronic mouse model of African trypanosomiasis (African trypanosomiasis [9]): inactive

CN1CCN(CCCN2c3ccccc3Sc3ccc(C(F)(F)F)cc32)CC1 [Trifluoperazine]
activity in the chronic mouse model of African trypanosomiasis (African trypanosomiasis [9]): inactive | IC50 [2]: 20.9 ± 0.9 µM | EC50 [4]: 2.11 ± 0.5 µM
